Measured values published in patent US9809623B2, “α4β7 peptide monomer and dimer antagonists” (Protagonist Therapeutics, Inc., priority 2014, dated 2017).
Numbered stars: 1 amine (or outer) side, 2 acyl side, 3 side chain; on linkers, the order of the positions; unused ones are H or OH. Bridge positions count the residues as written; N and C are the ends. Square brackets hold non-standard residues; d marks the D form. Peptide text beside a SMILES is read from it. I, II: the chains in the order shown. Phe(4-tBu) = CC(C)(C)c1ccc(C[C@H](N)C(=O)O)cc1; 2Nal = N[C@@H](Cc1ccc2ccccc2c1)C(=O)O; Diglycolyl = O=C(COCC(=O)[*:2])[*:1]; NMeR = CN[C@@H](CCCNC(=N)N)C(=O)O; β3hE = N[C@@H](CCC(=O)O)CC(=O)O; NMeK = CN[C@@H](CCCCN)C(=O)O; Pen = CC(C)(S)[C@H](N)C(=O)O; dNMeK = CN[C@H](CCCCN)C(=O)O

biological target: α4β7 (Homo sapiens, UniProt P13612+P26010); assay: α4β7-MAdCAM Cell Adhesion Assay (RPMI 8866 human cells); assay type: cell-based; set-up: host or cells: RPMI 8866 human B lymphoblastoid cells; settings: Table 3-B, Potency (α4β7); range classes; read-out: α4β7 cell (Hu) IC50
Outline: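 Washed RPMI 8866 cells (200,000/well) in DMEM with 0.1% BSA, 10 mM HEPES pH 7, 1 mM MnCl2 adhered to rh MAdCAM-1/Fc-coated wells with serially diluted peptides, 30-45 min at 37 °C. After three washes, bound cells quantified by MTT, A570, cell-free background subtracted for dose response.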

α4β7, sequence (P13612 34-1032): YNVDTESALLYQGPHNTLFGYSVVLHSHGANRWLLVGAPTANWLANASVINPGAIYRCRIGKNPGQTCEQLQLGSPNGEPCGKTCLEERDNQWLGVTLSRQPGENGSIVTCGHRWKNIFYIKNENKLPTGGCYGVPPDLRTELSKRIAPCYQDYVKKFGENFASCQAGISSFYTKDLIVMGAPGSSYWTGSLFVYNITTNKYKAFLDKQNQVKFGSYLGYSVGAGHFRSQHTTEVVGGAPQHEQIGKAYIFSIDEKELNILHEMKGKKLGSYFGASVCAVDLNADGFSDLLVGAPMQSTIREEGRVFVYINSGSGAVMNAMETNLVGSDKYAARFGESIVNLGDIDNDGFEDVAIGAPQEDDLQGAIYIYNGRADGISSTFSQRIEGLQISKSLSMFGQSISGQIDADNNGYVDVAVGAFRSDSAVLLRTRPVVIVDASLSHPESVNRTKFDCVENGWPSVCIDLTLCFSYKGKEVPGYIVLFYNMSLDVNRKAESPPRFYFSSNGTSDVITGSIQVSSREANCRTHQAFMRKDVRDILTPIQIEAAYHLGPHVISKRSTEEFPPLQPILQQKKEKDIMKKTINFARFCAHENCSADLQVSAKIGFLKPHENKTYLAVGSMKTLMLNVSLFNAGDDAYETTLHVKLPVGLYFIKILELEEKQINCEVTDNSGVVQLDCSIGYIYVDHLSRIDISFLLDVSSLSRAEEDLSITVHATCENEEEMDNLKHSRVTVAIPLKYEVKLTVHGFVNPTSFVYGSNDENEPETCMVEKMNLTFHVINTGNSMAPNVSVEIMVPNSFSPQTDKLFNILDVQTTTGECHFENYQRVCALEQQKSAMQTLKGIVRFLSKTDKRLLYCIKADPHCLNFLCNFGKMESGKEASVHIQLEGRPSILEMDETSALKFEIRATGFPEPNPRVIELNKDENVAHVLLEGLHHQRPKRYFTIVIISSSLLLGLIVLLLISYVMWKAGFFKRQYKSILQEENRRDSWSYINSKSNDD
α4β7, sequence (P26010 20-798): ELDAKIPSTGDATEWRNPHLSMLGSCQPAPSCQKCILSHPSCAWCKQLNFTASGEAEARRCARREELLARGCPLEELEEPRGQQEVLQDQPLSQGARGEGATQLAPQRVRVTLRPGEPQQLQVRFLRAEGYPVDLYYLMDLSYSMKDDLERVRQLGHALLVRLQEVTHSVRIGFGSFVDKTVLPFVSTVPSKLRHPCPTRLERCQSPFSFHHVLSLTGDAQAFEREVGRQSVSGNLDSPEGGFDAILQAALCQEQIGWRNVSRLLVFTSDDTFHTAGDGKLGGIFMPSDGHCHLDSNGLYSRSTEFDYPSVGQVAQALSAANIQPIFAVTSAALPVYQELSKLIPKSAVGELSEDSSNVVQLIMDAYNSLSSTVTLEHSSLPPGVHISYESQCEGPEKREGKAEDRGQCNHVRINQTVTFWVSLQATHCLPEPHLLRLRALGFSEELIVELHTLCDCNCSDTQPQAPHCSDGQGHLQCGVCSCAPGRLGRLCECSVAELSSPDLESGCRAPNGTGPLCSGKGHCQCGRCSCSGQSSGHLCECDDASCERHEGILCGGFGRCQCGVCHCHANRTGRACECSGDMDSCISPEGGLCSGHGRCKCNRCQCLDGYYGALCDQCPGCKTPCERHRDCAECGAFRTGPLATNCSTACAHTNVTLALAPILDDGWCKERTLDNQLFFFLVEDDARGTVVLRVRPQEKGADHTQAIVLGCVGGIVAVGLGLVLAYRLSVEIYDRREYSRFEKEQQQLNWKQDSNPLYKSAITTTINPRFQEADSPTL

In the case of CC(=O)N[C@@H]1C(=O)N(C)[C@@H](CCCNC(=N)N)C(=O)N[C@@H](CO)C(=O)N[C@@H](CC(=O)O)C(=O)N[C@@H]([C@@H](C)O)C(=O)N[C@@H](CC(C)C)C(=O)N[C@H](C(=O)N[C@@H](Cc2ccc(C(C)(C)C)cc2)C(=O)N[C@@H](CCC(=O)O)CC(=O)N[C@H](CCCCN)C(N)=O)C(C)(C)SSC1(C)C [compound 153] (Ac-[Pen][NMeR]SDTL[Pen][Phe(4-tBu)][β3hE][dK]-NH2; disulfide 1-7), the IC50 is reported as 10 to 25 nM.

same assay, conditions: Table 4-B; read-out: Cell Adhesion α4β7 IC50

Point of comparison: CC(=O)N[C@@H]1C(=O)N(C)[C@@H](CCCNC(=N)N)C(=O)N[C@@H](CO)C(=O)N[C@@H](CC(=O)O)C(=O)N[C@@H]([C@@H](C)O)C(=O)N[C@@H](CC(C)C)C(=O)N[C@H](C(=O)N[C@@H](Cc2c[nH]c3ccccc23)C(=O)N[C@H](CCCCN)C(N)=O)C(C)(C)SSC1(C)C [compound 208, Ac-Pen-N-Me-R-S-D-T-L-Pen-W-k-NH2] (Ac-[Pen][NMeR]SDTL[Pen]W[dK]-NH2; disulfide 1-7), IC50 412 nM. Against it:
- CC(=O)N[C@H]1CSSC[C@@H](C(=O)NCC(=O)N[C@@H](CCC(=O)O)C(N)=O)NC(=O)[C@H](CC(C)C)NC(=O)[C@H]([C@@H](C)O)NC(=O)[C@H](CC(=O)O)NC(=O)[C@H](CO)NC(=O)[C@H](CCCNC(=N)N)NC1=O [compound 194, Ac-C-R-S-D-T-L-C-G-E-NH2] (Ac-CRSDTLCGE-NH2; disulfide 1-7) — within 1.5-fold, 590 nM
- CC(=O)N[C@H]1CSSC[C@@H](C(N)=O)NC(=O)[C@H](CC(C)C)NC(=O)[C@H]([C@@H](C)O)NC(=O)[C@H](CC(=O)O)NC(=O)[C@H](CO)NC(=O)[C@H](CCCNC(=N)N)NC1=O [compound 195, Ac-C-R-S-D-T-L-C-NH2] (Ac-CRSDTLC-NH2; disulfide 1-7) — 3-fold higher, 1220 nM
- CC(=O)N[C@H]1CSSC[C@@H](C(=O)NCC(=O)N[C@@H](CCC(=O)O)C(=O)N[C@@H](CCCCN)C(=O)O)NC(=O)[C@H](CC(C)C)NC(=O)[C@H]([C@@H](C)O)NC(=O)[C@H](CC(=O)O)NC(=O)[C@H](CO)NC(=O)[C@H](CCCNC(=N)N)N(C)C1=O [compound 199, Ac-C-N-Me-R-S-D-T-L-C-G-E-K-OH] (Ac-C[NMeR]SDTLCGEK-OH; disulfide 1-7) — 11-fold higher, 4690 nM
- CC(=O)N[C@H]1CSSC[C@@H](C(=O)NCC(=O)N[C@@H](CCC(=O)O)C(=O)N[C@@H](CCCCNC(=O)COCC(=O)NCCCC[C@H](NC(=O)[C@H](CCC(=O)O)NC(=O)CNC(=O)[C@@H]2CSSC[C@H](NC(C)=O)C(=O)N(C)[C@@H](CCCNC(=N)N)C(=O)N[C@@H](CO)C(=O)N[C@@H](CC(=O)O)C(=O)N[C@@H]([C@@H](C)O)C(=O)N[C@@H](CC(C)C)C(=O)N2)C(=O)O)C(=O)O)NC(=O)[C@H](CC(C)C)NC(=O)[C@H]([C@@H](C)O)NC(=O)[C@H](CC(=O)O)NC(=O)[C@H](CO)NC(=O)[C@H](CCCNC(=N)N)N(C)C1=O [compound 201, (Ac-C-N-Me-R-S-D-T-L-C-G-E-K-OH)2-DIG] (I: Ac-C[NMeR]SDTLCGEK-OH / II: Ac-C[NMeR]SDTLCGEK-OH; disulfide I:1-I:7, II:1-II:7 (inferred); linker I:10-II:10 via Diglycolyl (inferred)) — 15-fold lower, 28 nM
- CC(=O)N[C@H]1CSSC(C)(C)[C@@H](C(=O)N[C@@H](CCC(=O)O)C(=O)N[C@H](CCCCNC(=O)COCC(=O)NCCCC[C@@H](NC(=O)[C@H](CCC(=O)O)NC(=O)[C@H]2NC(=O)[C@H](CC(C)C)NC(=O)[C@H]([C@@H](C)O)NC(=O)[C@H](CC(=O)O)NC(=O)[C@H](CO)NC(=O)[C@H](CCCNC(=N)N)N(C)C(=O)[C@@H](NC(C)=O)CSSC2(C)C)C(N)=O)C(N)=O)NC(=O)[C@H](CC(C)C)NC(=O)[C@H]([C@@H](C)O)NC(=O)[C@H](CC(=O)O)NC(=O)[C@H](CO)NC(=O)[C@H](CCCNC(=N)N)N(C)C1=O [compound 205, (Ac-C-N-Me-R-S-D-T-L-Pen-E-k-NH2)2-DIG] (I: Ac-C[NMeR]SDTL[Pen]E[dK]-NH2 / II: Ac-C[NMeR]SDTL[Pen]E[dK]-NH2; disulfide I:1-I:7, II:1-II:7 (inferred); linker I:9-II:9 via Diglycolyl (inferred)) — 16-fold lower, 26 nM
- CC(=O)N[C@@H]1C(=O)N[C@@H](CCCNC(=N)N)C(=O)N[C@@H](CO)C(=O)N[C@@H](CC(=O)O)C(=O)N[C@@H]([C@@H](C)O)C(=O)N[C@@H](CC(C)C)C(=O)N[C@H](C(=O)N[C@H](CCCCNC(=O)COCC(=O)NCCCC[C@@H](NC(=O)[C@@H]2CSSC(C)(C)[C@H](NC(C)=O)C(=O)N[C@@H](CCCNC(=N)N)C(=O)N[C@@H](CO)C(=O)N[C@@H](CC(=O)O)C(=O)N[C@@H]([C@@H](C)O)C(=O)N[C@@H](CC(C)C)C(=O)N2)C(N)=O)C(N)=O)CSSC1(C)C [compound 207, (Ac-Pen-R-S-D-T-L-C-k-NH2)2-DIG] (I: Ac-[Pen]RSDTLC[dK]-NH2 / II: Ac-[Pen]RSDTLC[dK]-NH2; disulfide I:1-I:7, II:1-II:7 (inferred); linker I:8-II:8 via Diglycolyl (inferred)) — 8.4-fold lower, 49 nM
- CC(=O)N[C@@H]1C(=O)N(C)[C@@H](CCCNC(=N)N)C(=O)N[C@@H](CO)C(=O)N[C@@H](CC(=O)O)C(=O)N[C@@H]([C@@H](C)O)C(=O)N[C@@H](CC(C)C)C(=O)N[C@H](C(=O)N[C@@H](Cc2c[nH]c3ccccc23)C(=O)N[C@@H](CCC(=O)O)C(=O)N(C)[C@H](CCCCNC(=O)COCC(=O)NCCCC[C@H](C(N)=O)N(C)C(=O)[C@H](CCC(=O)O)NC(=O)[C@H](Cc2c[nH]c3ccccc23)NC(=O)[C@H]2NC(=O)[C@H](CC(C)C)NC(=O)[C@H]([C@@H](C)O)NC(=O)[C@H](CC(=O)O)NC(=O)[C@H](CO)NC(=O)[C@H](CCCNC(=N)N)N(C)C(=O)[C@@H](NC(C)=O)C(C)(C)SSC2(C)C)C(N)=O)C(C)(C)SSC1(C)C [compound 214, [Ac-Pen-(N-Me-Arg)-Ser-Asp-Thr-Leu-Pen-Trp-Glu-(N-Me-D-Lys)-NH2]2-DIG] (I: Ac-[Pen][NMeR]SDTL[Pen]WE[dNMeK]-NH2 / II: Ac-[Pen][NMeR]SDTL[Pen]WE[dNMeK]-NH2; disulfide I:1-I:7, II:1-II:7 (inferred); linker I:10-II:10 via Diglycolyl (inferred)) — 160-fold lower, 2.5 nM
- CC(=O)N[C@@H]1C(=O)N(C)[C@@H](CCCNC(=N)N)C(=O)N[C@@H](CO)C(=O)N[C@@H](CC(=O)O)C(=O)N[C@@H]([C@@H](C)O)C(=O)N[C@@H](CC(C)C)C(=O)N[C@H](C(=O)N[C@@H](Cc2c[nH]c3ccccc23)C(=O)N[C@@H](CCC(=O)O)C(=O)N(C)[C@@H](CCCCNC(=O)COCC(=O)NCCCC[C@@H](C(N)=O)N(C)C(=O)[C@H](CCC(=O)O)NC(=O)[C@H](Cc2c[nH]c3ccccc23)NC(=O)[C@H]2NC(=O)[C@H](CC(C)C)NC(=O)[C@H]([C@@H](C)O)NC(=O)[C@H](CC(=O)O)NC(=O)[C@H](CO)NC(=O)[C@H](CCCNC(=N)N)N(C)C(=O)[C@@H](NC(C)=O)C(C)(C)SSC2(C)C)C(N)=O)C(C)(C)SSC1(C)C [compound 215, [Ac-Pen-(N-Me-Arg)-Ser-Asp-Thr-Leu-Pen-Trp-Glu-(N-Me-Lys)-NH2]2-DIG] (I: Ac-[Pen][NMeR]SDTL[Pen]WE[NMeK]-NH2 / II: Ac-[Pen][NMeR]SDTL[Pen]WE[NMeK]-NH2; disulfide I:1-I:7, II:1-II:7 (inferred); linker I:10-II:10 via Diglycolyl (inferred)) — 140-fold lower, 3 nM

biological target: α4β1 (Homo sapiens, UniProt P05556+P13612); assay: α4β1-VCAM Cell Adhesion Assay (Jurkat E6.1 human cells); assay type: cell-based; set-up: host or cells: Jurkat E6.1 human T cells; settings: Table 4-B; read-out: Cell Adhesion α4β1 IC50
Procedure: Jurkat E6.1 human cells (Sigma #88042803) were cultured in RPMI 1640 HEPES medium (Invitrogen #22400-089) supplemented with 10% serum (Fetal Bovine Serum, Invitrogen #16140-071), 1 mM sodium pyruvate (Invitrogen #11360-070), 2 mM L-glutamine (Invitrogen #25030-081) and Penicillin-Streptomycin (Invitrogen #15140-122) at 100 units of penicillin and 100 μg of streptomycin per ml. The cells were washed two times in DMEM medium (ATCC #30-2002) supplemented with 0.1% BSA, 10 mM HEPES pH 7 and 1 mM MnCl2. The cells were re-suspended in supplemented DMEM medium at a density of 4×10^6 cells/ml.
A Nunc MaxiSorp plate was coated with rh VCAM-1/CD106 Fc chimera (R&D #862-VC) at 400 ng per well in 50 ul per well in 1×PBS and incubated at 4° C. overnight. The solution was then removed by shaking, blocked with 250 ul per well PBS containing 1% BSA, and incubated at 37° C. for 1 hr. The solution was removed by shaking. Peptides were diluted by serial dilution in a final volume of 50 ul per well (2× concentration). To each well, 50 ul of cells (200,000 cells) were added and the plate was incubated at 37° C., 5% CO2 for 30-45 min to allow cell adhesion. The wells were washed manually three times (100 ul per wash) with supplemented DMEM. After the final wash, 100 ul/well of supplemented DMEM and 10 ul/well of MTT reagent (ATTC cat#30-1010K) were added. The plate was incubated at 37° C., 5% CO2 for 2-3 hrs until a purple precipitate was visible. 100 ul of Detergent Reagent (ATTC cat#30-1010K) was added to each well. The plate was covered from the light, wrapped in Parafilm to prevent evaporation, and left overnight at room temperature in the dark. The plate was shaken for 5 min and the absorbance at 570 nm was measured. To calculate the dose response, the absorbance value of control wells not containing cells was subtracted from each test well.

α4β1, sequence (P13612 34-1032): as the sequence (P13612 34-1032) above
α4β1, sequence (P05556 21-798): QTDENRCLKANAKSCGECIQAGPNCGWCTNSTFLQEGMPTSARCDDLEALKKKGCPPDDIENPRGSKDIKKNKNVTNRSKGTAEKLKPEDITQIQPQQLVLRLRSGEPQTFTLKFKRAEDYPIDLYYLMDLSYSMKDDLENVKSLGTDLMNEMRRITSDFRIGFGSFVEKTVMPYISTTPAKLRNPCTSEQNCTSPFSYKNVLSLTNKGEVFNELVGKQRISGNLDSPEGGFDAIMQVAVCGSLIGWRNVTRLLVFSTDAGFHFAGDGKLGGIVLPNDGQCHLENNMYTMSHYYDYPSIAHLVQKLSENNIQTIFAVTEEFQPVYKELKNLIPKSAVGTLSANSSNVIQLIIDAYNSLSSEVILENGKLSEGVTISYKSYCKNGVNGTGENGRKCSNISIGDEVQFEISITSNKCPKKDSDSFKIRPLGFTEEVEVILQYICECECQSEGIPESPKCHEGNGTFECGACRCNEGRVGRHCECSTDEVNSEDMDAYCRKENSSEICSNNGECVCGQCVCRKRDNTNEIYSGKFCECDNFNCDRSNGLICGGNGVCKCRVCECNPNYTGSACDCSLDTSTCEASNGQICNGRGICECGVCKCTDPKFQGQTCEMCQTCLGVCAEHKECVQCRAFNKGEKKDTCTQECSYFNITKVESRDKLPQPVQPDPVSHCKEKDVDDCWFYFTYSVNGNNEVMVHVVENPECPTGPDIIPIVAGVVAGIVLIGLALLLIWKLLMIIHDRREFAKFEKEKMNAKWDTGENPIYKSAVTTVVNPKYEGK

With CC(=O)N[C@@H]1C(=O)N(C)[C@@H](CCCNC(=N)N)C(=O)N[C@@H](CO)C(=O)N[C@@H](CC(=O)O)C(=O)N[C@@H]([C@@H](C)O)C(=O)N[C@@H](CC(C)C)C(=O)N[C@H](C(=O)N[C@@H](Cc2ccc3ccccc3c2)C(=O)N[C@@H](CCC(=O)O)C(=O)N[C@H](CCCCN)C(N)=O)C(C)(C)SSC1(C)C [compound 210, Ac-Pen-N-Me-R-S-D-T-L-Pen-2-Nal-E-k-NH2] (Ac-[Pen][NMeR]SDTL[Pen][2Nal]E[dK]-NH2; disulfide 1-7) the IC50 was > 100000 nM.
